Test results as given in US7071197B2, “N,N-disubstituted diazocycloalkanes” (Recordati S.A., priority 2002, dated 2006).

What was measured:
[1] = biological target: T1, human 5HT1A-serotonergic receptor (Homo sapiens, UniProt P08908); assay: [3H]8-OH-DPAT radioligand binding to human recombinant 5-HT1A receptors; conditions: for Ki: [3H]8-OH-DPAT, HeLa cell membranes, read-out: Affinity: Ki; for potency at the 5-HT1A receptor compared with Ex. 5: statistical signficance p<0.01
T1 construct: expressed in transfected cells
T1 sequence (P08908 1-422): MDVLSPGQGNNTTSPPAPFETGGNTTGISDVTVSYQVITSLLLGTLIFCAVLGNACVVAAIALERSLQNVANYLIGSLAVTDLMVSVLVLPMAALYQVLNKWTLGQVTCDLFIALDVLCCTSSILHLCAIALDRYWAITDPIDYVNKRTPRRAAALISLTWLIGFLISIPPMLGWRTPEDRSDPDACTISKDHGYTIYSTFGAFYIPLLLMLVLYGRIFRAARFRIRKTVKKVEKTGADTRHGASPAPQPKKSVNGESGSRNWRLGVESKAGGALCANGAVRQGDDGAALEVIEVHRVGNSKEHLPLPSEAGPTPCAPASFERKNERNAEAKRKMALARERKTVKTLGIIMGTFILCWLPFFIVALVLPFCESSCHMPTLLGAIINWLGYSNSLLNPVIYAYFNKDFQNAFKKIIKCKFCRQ
Procedure: A genomic clone coding for the human 5HT1A-serotonergic receptor was stably transfected in a human cell line (HeLa). HeLa cells were grown as monolayers in Dulbecco's modified Eagle medium (DMEM), containing 10% fetal bovine serum, gentamycin (0.1 mg/ml) and 5% carbon dioxide, at 37° C. The cells were detached from the growth flask at 95% confluence by a cell scraper and were lysed in cold 5 mM Tris and 5 mM EDTA buffer (pH 7.4). The homogenates were centrifuged at 40000×g×20 minutes and the pellets were resuspended in a small volume of cold 5 mM Tris and 5 mM EDTA buffer (pH 7.4) and immediately frozen and stored at −70° C. until use.
[^3H]8-OH-DPAT binding: on the day of experiment, the cell membranes were resuspended in incubation buffer: 50 mM Tris HCl (pH 7.4), 2.5 mM MgCl2, […] (Fargin et al., Nature 335, 358–360, 1988). The membranes were incubated in a final volume of 1 ml for 30 minutes at 30° C. with 1 nM [^3H]8-OH-DPAT, in the absence or presence of the test compounds. Non-specific binding was determined in the presence of 10 μM 5-HT. Incubation was stopped by addition of cold Tris-HCl buffer and rapid filtration through a 0.2%-polyethyleneimine-pretreated Whatman-GF/B or Schleicher-&-Schuell-GF52 filter.
The affinity of the tested compounds was evaluated as inhibition of specific binding of the radioligand to 5-HT1A receptors (IC50) by using the non-linear curve-fitting program (De Lean et al., Am. J. Physiol. 235, E97-E102, 1978). The IC50 value was converted to an affinity constant (Ki) by the equation of Cheng et al., Biochem. Pharmacol. 22, 3099–3108 (1973).

human α1a-adrenoceptor = biological target: T2, human α1a-adrenoceptor (Homo sapiens, UniProt P35348); assay: [3H]prazosin binding to cloned human α1-adrenoceptor subtypes (α1a); conditions: for Ki: [3H]prazosin, CHO cell membranes, read-out: Binding affinity (Ki, nM) α1a; for α1a/5-HT1A: selectivity: ratio of Ki at α1a and Ki at 5-HT1A
T2 construct: expressed in transfected cells
T2 sequence (P35348 1-466): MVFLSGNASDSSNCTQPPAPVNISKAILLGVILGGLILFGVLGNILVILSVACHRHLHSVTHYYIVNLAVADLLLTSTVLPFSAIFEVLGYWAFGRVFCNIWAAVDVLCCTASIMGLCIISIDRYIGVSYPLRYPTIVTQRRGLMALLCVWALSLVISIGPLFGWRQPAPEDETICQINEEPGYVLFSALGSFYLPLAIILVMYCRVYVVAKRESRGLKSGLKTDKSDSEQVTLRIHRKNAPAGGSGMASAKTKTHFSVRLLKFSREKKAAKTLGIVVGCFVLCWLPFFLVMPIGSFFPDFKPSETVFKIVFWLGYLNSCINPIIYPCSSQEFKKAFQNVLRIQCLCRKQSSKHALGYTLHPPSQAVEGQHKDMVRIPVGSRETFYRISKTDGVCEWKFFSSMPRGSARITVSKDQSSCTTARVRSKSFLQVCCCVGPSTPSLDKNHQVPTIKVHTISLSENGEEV
Procedure: Binding to cloned human α1-adrenoceptor subtypes was performed in membranes from CHO cells (chinese hamster ovary cells) transfected by electroporation with DNA expressing the gene encoding each α1-adrenoceptor subtype. Cloning and stable expression of the human α1-adrenoceptor gene was performed as previously described (Testa et al. Pharmacol. Comm., 6: 79–86,1995).
CHO cells were grown in suspension in Iscove's modified Dulbecco's medium, supplemented with 10% fetal calf serum and gentamicin (50 μg/ml), at 37° C. in 7% CO2 in an humidified incubator. Cells were collected by centrifugation, lised in ice-cold Tris 5 mM and EDTA 5 mM buffer (pH 7.4) and gently homogenised. Homogenates were centrifuged at 40000×g×20 min and pellets were resuspended in a small volume of ice-cold Tris 5 mM and EDTA 5 mM buffer (pH 7.4) and immediately frozen and stored at −80° C. until use.
CHO cell membranes were resuspended and incubated in 50 mM Tris, pH 7.4, with 0.2 nM [^3H]prazosin, in a final volume of 1.02 ml for 30 min at 25° C., in absence or presence of competing drugs. Non-specific binding was determined in the presence of 10 μM phentolamine. The incubation was stopped by rapid filtration through 0.2% polyethyleneimine pretreated Schleicher & Schuell GF52 filters using a Tomtec (PerkinElmer) cell harvester. The filters were washed with 3×1 ml of ice-cold Tris buffer, dried and the radioactivity was measured in a Betaplate (Wallac) liquid scintillation counter.
The inhibition of specific binding by the compounds was analysed to estimate the IC50 value by the non-linear curve-fitting program Allfit (De Lean et al. Am. J. Physiol. 235, E97-E102, 1978). The IC50 value is converted to an affinity constant (Ki) by the equation of Cheng & Prusoff (Biochem. Pharmacol. 22: 3099–3108, 1973).

Ki [1] [nM] | potency at the 5-HT1A receptor compared with Ex. 5 [1] | Ki (human α1a-adrenoceptor) [nM] | α1a/5-HT1A (human α1a-adrenoceptor) | SMILES
0.13 | more potent than Ex. 5 | 18 | 138 | COc1ccccc1N1CCN(CC[C@@H](c2ccccc2F)[C@H](O)C2CCCCC2)CC1 (racemic) [Ex. 1, 1-[(SR-RS)-4-cyclohexyl-4-hydroxy-3-(2-fluorophenyl)-butyl]-4-(2-methoxyphenyl)-piperazine]
0.65 | – | 51 | 78 | COc1ccccc1N1CCN(CC[C@H](c2ccccc2)[C@@H](O)C2CCCCC2)CC1 (racemic) [Ex. 5, 1-[(RS,SR)-4-Cyclohexyl-4-hydroxy-3-phenyl-butyl]-4-(2-methoxyphenyl)-piperazine, reference compound]
0.37 | more potent than Ex. 5 | 24 | 65 | COc1ccccc1N1CCN(CC[C@H](c2ccccc2F)[C@@H](O)C2CCCCC2)CC1 [Ex. 1Y, 1-[(3R,4S)-4-cyclohexyl-4-hydroxy-3-(2-fluorophenyl)-butyl]-4-(2-methoxyphenyl)-piperazine]
0.24 | more potent than Ex. 5 | 44 | 183 | COc1ccccc1N1CCN(CC[C@H](c2ccccc2F)[C@H](O)C2CCCCC2)CC1 [Ex. 2X, 1-[(3R,4R)-4-cyclohexyl-4-hydroxy-3-(2-fluorophenyl)-butyl]-4-(2-methoxyphenyl)-piperazine]
